Experimental data: ChEMBL document CHEMBL1201862, “PubChem BioAssay data set” (2004)
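Five compound concentrations were applied to cells in 96-well plates for 48 hours; endpoints were derived by simple linear interpolation of the resulting dose-response curve. Here, GI50 denotes the concentration required for 50% inhibition of growth.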 Activity calls are given as the source filed them. No stated cut-off is given here; in the data, active = GI50 up to about 1.1 µM and inactive = higher.

How the values were obtained:
Experiment in all cases: NCI-60 cell line screen, 48 h
SK-MEL-5 = test system: SK-MEL-5
TK-10 = test system: TK-10
HCT-116 = test system: HCT-116
PC-3 = test system: PC-3
OVCAR-5 = test system: OVCAR-5
MDA-MB-231 = test system: MDA-MB-231
RPMI-8226 = test system: RPMI-8226
UACC-62 = test system: UACC-62
HCT-15 = test system: HCT-15
SW-620 = test system: SW-620
786-0 = test system: 786-0
A498 = test system: A498
U-251 = test system: U-251
CCRF-CEM = test system: CCRF-CEM
SNB-75 = test system: SNB-75
SR = test system: SR
MDA-MB-435 = test system: MDA-MB-435
SK-OV-3 = test system: SK-OV-3
SN12C = test system: SN12C
SF-268 = test system: SF-268
A549 = test system: A549
IGROV-1 = test system: IGROV-1
DU-145 = test system: DU-145
HT-29 = test system: HT-29
MDA-N = test system: MDA-N
ACHN = test system: ACHN
RXF 393 = test system: RXF 393
SK-MEL-2 = test system: SK-MEL-2
OVCAR-8 = test system: OVCAR-8
CAKI-1 = test system: CAKI-1
UO-31 = test system: UO-31
SK-MEL-28 = test system: SK-MEL-28
HOP-92 = test system: HOP-92
UACC-257 = test system: UACC-257
HL-60 = test system: HL-60
Hs-578T = test system: Hs-578T
M14 = test system: M14
MCF7 = test system: MCF7
MOLT-4 = test system: MOLT-4
EKVX = test system: EKVX
KM12 = test system: KM12
SNB-19 = test system: SNB-19
LOX IMVI = test system: LOX IMVI
OVCAR-4 = test system: OVCAR-4
HOP-62 = test system: HOP-62
K562 = test system: K562
SF-539 = test system: SF-539
NCI-H460 = test system: NCI-H460
SF-295 = test system: SF-295
HCC 2998 = test system: HCC 2998
Malme-3M = test system: Malme-3M
T47D = test system: T47D
NCI-H23 = test system: NCI-H23
OVCAR-3 = test system: OVCAR-3
NCI/ADR-RES = test system: NCI/ADR-RES
COLO 205 = test system: COLO 205
NCI-H522 = test system: NCI-H522

For `COc1cc(/C=C2\CCC(C)C3=C2NC(=S)NC3c2cc(OC)c(OC)c(OC)c2)cc(OC)c1OC` (centres undefined), the GI50 (SK-MEL-5) was 23.2 µM (inactive), the GI50 (TK-10) was 70.6 µM (inactive) and the GI50 (HCT-116) was 49 µM (inactive). For the same compound, the GI50 (PC-3) was 37.7 µM (inactive), the GI50 (OVCAR-5) was > 100 µM (inactive) and the GI50 (MDA-MB-231) was 34.5 µM (inactive). For the same compound, the GI50 (RPMI-8226) was 18.5 µM (inactive), the GI50 (UACC-62) was 40 µM (inactive) and the GI50 (HCT-15) was 47.4 µM. The GI50 (SW-620) was 96.2 µM (inactive), the GI50 (786-0) was 83.9 µM (inactive) and the GI50 (A498) was 53 µM (inactive). For the same compound, the GI50 (U-251) was 46.8 µM (inactive), the GI50 (CCRF-CEM) was 25.2 µM (inactive) and the GI50 (SNB-75) was 25.6 µM (inactive). The GI50 (SR) was 25.2 µM (inactive), the GI50 (MDA-MB-435) was 38.2 µM (inactive) and the GI50 (SK-OV-3) was > 100 µM (inactive). The GI50 (SN12C) was 68.4 µM (inactive), the GI50 (SF-268) was 73.6 µM (inactive) and the GI50 (A549) was 36.4 µM (inactive). For the same compound, the GI50 (IGROV-1) was 40.3 µM (inactive), the GI50 (DU-145) was 56.8 µM (inactive) and the GI50 (HT-29) was 60.1 µM (inactive). For the same compound, the GI50 (MDA-N) was 43.1 µM (inactive), the GI50 (ACHN) was 92.7 µM (inactive) and the GI50 (RXF 393) was 34.1 µM (inactive). The GI50 (SK-MEL-2) was > 100 µM (inactive), the GI50 (OVCAR-8) was 54 µM (inactive) and the GI50 (CAKI-1) was 81.5 µM (inactive). For the same compound, the GI50 (UO-31) was 15.8 µM (inactive), the GI50 (SK-MEL-28) was 30.4 µM (inactive) and the GI50 (HOP-92) was > 100 µM (inactive). The GI50 (UACC-257) was 53.8 µM (inactive), the GI50 (HL-60) was 12.5 µM (inactive) and the GI50 (Hs-578T) was 37 µM (inactive). For the same compound, the GI50 (M14) was 60.3 µM (inactive), the GI50 (MCF7) was 35.7 µM (inactive) and the GI50 (MOLT-4) was 24 µM (inactive). For the same compound, the GI50 (EKVX) was 58.1 µM (inactive), the GI50 (KM12) was 32.3 µM (inactive) and the GI50 (SNB-19) was 51.8 µM (inactive). For the same compound, the GI50 (LOX IMVI) was 53.2 µM (inactive), the GI50 (OVCAR-4) was 69 µM (inactive) and the GI50 (HOP-62) was 70.6 µM (inactive). For the same compound, the GI50 (K562) was 26.1 µM (inactive).
`C=CCOc1ccc(C2c3c(n[nH]c3O)CC(O)(OCC)C2C(=O)OCC)cc1OC` (centres undefined) was tested, and the GI50 (SF-539) was > 100 µM (inactive), the GI50 (SK-MEL-5) was > 100 µM (inactive) and the GI50 (NCI-H460) was > 100 µM (inactive). For the same compound, the GI50 (TK-10) was > 100 µM (inactive), the GI50 (SF-295) was > 100 µM (inactive) and the GI50 (HCT-116) was > 100 µM (inactive). For the same compound, the GI50 (PC-3) was > 100 µM (inactive), the GI50 (OVCAR-5) was > 100 µM (inactive) and the GI50 (MDA-MB-231) was > 100 µM (inactive). The GI50 (RPMI-8226) was > 100 µM (inactive), the GI50 (UACC-62) was 0.1 µM (active) and the GI50 (HCT-15) was > 100 µM. For the same compound, the GI50 (SW-620) was > 100 µM (inactive), the GI50 (786-0) was > 100 µM (inactive) and the GI50 (A498) was > 100 µM (inactive). The GI50 (U-251) was > 100 µM (inactive), the GI50 (CCRF-CEM) was > 100 µM (inactive) and the GI50 (SNB-75) was > 100 µM (inactive). For the same compound, the GI50 (HCC 2998) was > 100 µM (inactive), the GI50 (MDA-MB-435) was > 100 µM (inactive) and the GI50 (SN12C) was > 100 µM (inactive). For the same compound, the GI50 (SF-268) was > 100 µM (inactive), the GI50 (A549) was > 100 µM (inactive) and the GI50 (IGROV-1) was > 100 µM (inactive). The GI50 (DU-145) was > 100 µM (inactive), the GI50 (HT-29) was > 100 µM (inactive) and the GI50 (MDA-N) was > 100 µM (inactive). For the same compound, the GI50 (ACHN) was > 100 µM (inactive), the GI50 (Malme-3M) was > 100 µM (inactive) and the GI50 (T47D) was > 100 µM (inactive). The GI50 (SK-MEL-2) was > 100 µM (inactive), the GI50 (OVCAR-8) was > 100 µM (inactive) and the GI50 (CAKI-1) was > 100 µM (inactive). The GI50 (NCI-H23) was > 100 µM (inactive), the GI50 (OVCAR-3) was > 100 µM (inactive) and the GI50 (UO-31) was > 100 µM (inactive). The GI50 (SK-MEL-28) was > 100 µM (inactive), the GI50 (HOP-92) was > 100 µM (inactive) and the GI50 (UACC-257) was > 100 µM (inactive). For the same compound, the GI50 (HL-60) was > 100 µM (inactive), the GI50 (Hs-578T) was > 100 µM (inactive) and the GI50 (NCI/ADR-RES) was > 100 µM (inactive). For the same compound, the GI50 (M14) was > 100 µM (inactive), the GI50 (MCF7) was > 100 µM (inactive) and the GI50 (MOLT-4) was > 100 µM (inactive). The GI50 (COLO 205) was > 100 µM (inactive), the GI50 (EKVX) was > 100 µM (inactive) and the GI50 (KM12) was > 100 µM (inactive). For the same compound, the GI50 (SNB-19) was > 100 µM (inactive), the GI50 (LOX IMVI) was > 100 µM (inactive) and the GI50 (OVCAR-4) was > 100 µM (inactive). For the same compound, the GI50 (HOP-62) was > 100 µM (inactive) and the GI50 (NCI-H522) was > 100 µM (inactive).
